Test results: ChEMBL document CHEMBL5537158, “Polymyxins with Potent Antibacterial Activity against Colistin-Resistant Pathogens: Fine-Tuning Hydrophobicity with Unnatural Amino Acids” (J Med Chem, 2024)
Values after ≈ are worked out from the molar mass of the structure shown. Positions of bridges follow the written chain, without caps; N, C: chain ends. Non-standard residues stand in square brackets, D forms with d. Residues, ends and D or L forms follow the SMILES beside them. *: point of attachment. d(hPhe) = N[C@H](CCc1ccccc1)C(=O)O; d(hLeu) = CC(C)CC[C@@H](N)C(=O)O; dAoc(2) = CCCCCC[C@@H](N)C(=O)O; Octanoyl = CCCCCCCC(=O)*; Dab = NCC[C@H](N)C(=O)O

Key:
[1] = Hemolytic activity in human RBC at 400 ug/ml after 1 hr; assay type: toxicity, cell-based, Erythrocyte; details: red blood cells (erythrocytes), at 400 µg/mL, read-out: Activity
Acinetobacter baumannii [2] = assay: Antimicrobial activity against Acinetobacter baumannii ATCC 19606 assessed as bacterial growth inhibition incubated for 20 hrs by broth microdilution method; assay type: functional
Klebsiella pneumoniae = assay: Antimicrobial activity against Klebsiella pneumoniae ATCC 13883 assessed as bacterial growth inhibition incubated for 20 hrs by broth microdilution method; assay type: functional
Pseudomonas aeruginosa [3] = assay: Antimicrobial activity against Pseudomonas aeruginosa PAO1 assessed as bacterial growth inhibition incubated for 20 hrs by broth microdilution method; assay type: functional
Escherichia coli [4] = assay: Antibacterial activity against Escherichia coli ATCC 25922 assessed as bacterial growth inhibition incubated for 20 hrs by broth microdilution method; assay type: functional
Escherichia coli [5] = assay: Antimicrobial activity against […] Escherichia coli harboring mcr-1 assessed as bacterial growth inhibition incubated for 20 hrs by broth microdilution method; assay type: functional
Pseudomonas aeruginosa [6] = assay: Antimicrobial activity against colistin resistant Pseudomonas aeruginosa 7197/19 assessed as bacterial growth inhibition incubated for 20 hrs by broth microdilution method; assay type: functional
Acinetobacter baumannii [7] = assay: Antimicrobial activity against colistin resistant Acinetobacter baumannii ATCC 3658/17 assessed as bacterial growth inhibition incubated for 20 hrs by broth microdilution method; assay type: functional

Compound: CC(=O)N[C@H](Cc1ccc(Cl)cc1)C(=O)N[C@@H](CCN)C(=O)N[C@H](C(=O)N[C@@H](CCN)C(=O)N[C@H]1CCNC(=O)[C@H]([C@@H](C)O)NC(=O)[C@H](CCN)NC(=O)[C@H](CCN)NC(=O)[C@H](CC(C)C)NC(=O)[C@@H](Cc2ccccc2)NC(=O)[C@@H](CCN)NC1=O)[C@H](C)O
- hemolysis at 1 h, 400 ug/ml [1]: < 10%
- MIC (Acinetobacter baumannii [2]): 0.5 µg/mL (≈ 0.389 µM)
- MIC (Klebsiella pneumoniae): 16 µg/mL (≈ 12.4 µM)

Compound: CC(=O)N[C@H](Cc1c(F)c(F)c(F)c(F)c1F)C(=O)N[C@@H](CCN)C(=O)N[C@H](C(=O)N[C@@H](CCN)C(=O)N[C@H]1CCNC(=O)[C@H]([C@@H](C)O)NC(=O)[C@H](CCN)NC(=O)[C@H](CCN)NC(=O)[C@H](CC(C)C)NC(=O)[C@@H](Cc2ccccc2)NC(=O)[C@@H](CCN)NC1=O)[C@H](C)O
- hemolysis at 1 h, 400 ug/ml [1]: < 10%
- MIC (Pseudomonas aeruginosa [3]): 0.25 µg/mL (≈ 0.186 µM)
- MIC (Escherichia coli [4]): < 0.125 µg/mL
- MIC (Klebsiella pneumoniae): 8 µg/mL (≈ 5.96 µM)
- MIC (Escherichia coli [5]): 8 µg/mL (≈ 5.96 µM)

Compound: CC(=O)N[C@H](Cc1ccc(Br)cc1)C(=O)N[C@@H](CCN)C(=O)N[C@H](C(=O)N[C@@H](CCN)C(=O)N[C@H]1CCNC(=O)[C@H]([C@@H](C)O)NC(=O)[C@H](CCN)NC(=O)[C@H](CCN)NC(=O)[C@H](CC(C)C)NC(=O)[C@@H](Cc2ccccc2)NC(=O)[C@@H](CCN)NC1=O)[C@H](C)O
- hemolysis at 1 h, 400 ug/ml [1]: < 10%
- MIC (Pseudomonas aeruginosa [3]): 0.125 µg/mL (≈ 0.0939 µM)
- MIC (Escherichia coli [4]): 0.06 µg/mL (≈ 0.0451 µM)
- MIC (Klebsiella pneumoniae): 8 µg/mL (≈ 6.01 µM)
- MIC (Pseudomonas aeruginosa [6]): 16 µg/mL (≈ 12 µM)

Compound: CC(=O)N[C@H](Cc1ccc(C(F)(F)F)cc1)C(=O)N[C@@H](CCN)C(=O)N[C@H](C(=O)N[C@@H](CCN)C(=O)N[C@H]1CCNC(=O)[C@H]([C@@H](C)O)NC(=O)[C@H](CCN)NC(=O)[C@H](CCN)NC(=O)[C@H](CC(C)C)NC(=O)[C@@H](Cc2ccccc2)NC(=O)[C@@H](CCN)NC1=O)[C@H](C)O
- hemolysis at 1 h, 400 ug/ml [1]: < 10%
- MIC (Pseudomonas aeruginosa [3]): 0.25 µg/mL (≈ 0.189 µM)
- MIC (Acinetobacter baumannii [2]): 0.5 µg/mL (≈ 0.379 µM)
- MIC (Klebsiella pneumoniae): 8 µg/mL (≈ 6.06 µM)
- MIC (Escherichia coli [5]): 4 µg/mL (≈ 3.03 µM)
- MIC (Pseudomonas aeruginosa [6]): 32 µg/mL (≈ 24.2 µM)

Compound: CCCCCCCC(=O)N[C@@H](CCN)C(=O)N[C@H](C(=O)N[C@@H](CCN)C(=O)N[C@H]1CCNC(=O)[C@H]([C@@H](C)O)NC(=O)[C@H](CCN)NC(=O)[C@H](CCN)NC(=O)[C@H](Cc2ccccc2)NC(=O)[C@@H](CCC(C)C)NC(=O)[C@H](CCN)NC1=O)[C@@H](C)O (Octanoyl-[Dab]T[Dab][Dab][Dab][d(hLeu)]F[Dab][Dab]T; lactam 4-C)
- MIC (Acinetobacter baumannii [2]): < 0.125 µg/mL
- MIC (Escherichia coli [4]): < 0.125 µg/mL
- MIC (Acinetobacter baumannii [7]): 1 µg/mL (≈ 0.831 µM)
- MIC (Klebsiella pneumoniae): 0.5 µg/mL (≈ 0.415 µM)
- MIC (Pseudomonas aeruginosa [6]): 0.23 µg/mL (≈ 0.191 µM)

Compound: CCCCCCCC(=O)N[C@@H](CCN)C(=O)N[C@H](C(=O)N[C@@H](CCN)C(=O)N[C@H]1CCNC(=O)[C@H]([C@@H](C)O)NC(=O)[C@H](CCN)NC(=O)[C@H](CCN)NC(=O)[C@H](Cc2ccccc2)NC(=O)[C@@H](CCc2ccccc2)NC(=O)[C@H](CCN)NC1=O)[C@@H](C)O (Octanoyl-[Dab]T[Dab][Dab][Dab][d(hPhe)]F[Dab][Dab]T; lactam 4-C)
- MIC (Pseudomonas aeruginosa [3]): 0.25 µg/mL (≈ 0.202 µM)
- MIC (Acinetobacter baumannii [2]): 0.125 µg/mL (≈ 0.101 µM)
- MIC (Escherichia coli [4]): 0.5 µg/mL (≈ 0.404 µM)
- MIC (Acinetobacter baumannii [7]): 1 µg/mL (≈ 0.808 µM)
- MIC (Klebsiella pneumoniae): 2 µg/mL (≈ 1.62 µM)
- MIC (Escherichia coli [5]): 2 µg/mL (≈ 1.62 µM)
- MIC (Pseudomonas aeruginosa [6]): 0.25 µg/mL (≈ 0.202 µM)

Compound: CCCCCCCC(=O)N[C@@H](CCN)C(=O)N[C@H](C(=O)N[C@@H](CCN)C(=O)N[C@H]1CCNC(=O)[C@H]([C@@H](C)O)NC(=O)[C@H](CCN)NC(=O)[C@H](CCN)NC(=O)[C@H](Cc2ccccc2)NC(=O)[C@@H](CCCCCC)NC(=O)[C@H](CCN)NC1=O)[C@@H](C)O (Octanoyl-[Dab]T[Dab][Dab][Dab][dAoc(2)]F[Dab][Dab]T; lactam 4-C)
- MIC (Acinetobacter baumannii [2]): 0.25 µg/mL (≈ 0.205 µM)
- MIC (Escherichia coli [4]): 0.25 µg/mL (≈ 0.205 µM)
- MIC (Acinetobacter baumannii [7]): 0.5 µg/mL (≈ 0.411 µM)
- MIC (Klebsiella pneumoniae): 1 µg/mL (≈ 0.821 µM)
- MIC (Pseudomonas aeruginosa [6]): 0.25 µg/mL (≈ 0.205 µM)
